What was measured:
[1] = test system: LPS-stimulated RAW264.7 cell lines; assay: LPS-induced NO production (Griess) in RAW264.7; format: cell-based, murine; conditions: for The production of NO / inhibition at 10 µM: LPS-stimulated RAW264.7; for The production of NO: LPS group 49.86 ± 0.62, control 1.20 ± 0.38; for inhibitory activity against NO production compared with curcumin: 10 μM; for inhibition at 10 µM: Mus musculus, read-out: inhibition rate (anti-inflammatory activity)
Experimental: RAW 264.7 cells were plated in 96-well plates at a density of 1 × 10^4 cells/well and incubated overnight at 37 °C under 5% CO2. […] Dexamethasone (Solarbio, D8040, Beijing, China) was used as the positive control. Then, 24 h later, NO production was determined by measuring the nitrite content using Griess reagents. Fifty microliters of culture supernatants were transferred to 96-well plates and mixed with 50 μL Griess reagent A. After incubation at room temperature for 5 min, the samples were mixed with an equal volume Griess reagent B for another 5 min. The absorbance of each mixture at 540 nm was measured using a microplate reader.

[2] = test system: H2O2-stimulated PC 12 cell lines; assay: Protection against H2O2-induced oxidative damage (CCK-8); format: cell-based, rat; conditions: for viability at 5 µM / viability at 10 µM / viability at 20 µM: Rattus norvegicus; for viability at 5 µM: PC-12, Dose 5 μM; for viability at 5 µM / viability at 10 µM / viability at 20 µM / Cell viability: H2O2-induced oxidative damage, PC 12, H2O2 group 49.69 ± 1.37, control 100; for viability at 10 µM: PC-12, Dose 10 μM; for viability at 20 µM: PC-12, Dose 20 μM; for Cell viability: in % (unit assumed)
Experimental: PC 12 cells were seeded in 96-well plates at a density of 8000 cells/well and incubated overnight. […] After incubating under the same conditions for 24 h, 10 μL CCK-8 solution was added to each well. After 2 h incubation, the absorbance of each well was measured at 450 nm using a microplated reader (Multiskan MK-3, Thermo, Waltham, MA, USA).

PC 12 cell lines = assay: Radiation protection in vitro (CCK-8); format: cell-based, rat; conditions: for Cell viability / viability at 5 µM / viability at 10 µM / viability at 20 µM: radiation 8.0 Gy, PC 12, radiation group 50.22 ± 1.08; for Cell viability: in % (unit assumed); for radiation protection capability compared with curcumin / radiation protection capacity: 10 μM; for radiation protection capability compared with curcumin: irradiated PC 12; for radiation protection capacity: versus radiation group; for viability at 5 µM / viability at 10 µM / viability at 20 µM: Rattus norvegicus; for viability at 5 µM: PC-12, Dose 5 μM; for viability at 10 µM: PC-12, Dose 10 μM; for viability at 20 µM: PC-12, Dose 20 μM
Experimental: The rat adrenal pheochromocytoma cells (PC 12) were used for in vitro studies. A Cell Counting Kit-8 (CCK-8, Applygen Technologies Co., Ltd., Beijing, China) assay was used to determine cell viability. […] Cells were irradiated with dose of 8.0 Gy at a dose rate of 0.8 Gy/min. Then, 10 μL CCK-8 solution was added to all the wells. After 4 h incubation, the absorbance at 450 nm of each well was measured in a multiscan photometer.

## COc1cc(/C=C/C(=O)CC(=O)/C=C/c2cc(OC)c(O)c(OC)c2)cc(CN(C)C)c1O [Compound 2]
[1]; Dose 5 μM
  The production of NO: 43.78 ± 1.52
[1]; Dose 10 μM
  The production of NO: 42.04 ± 1.70
[1]; Dose 15 μM
  The production of NO: 36.99 ± 1.85
[2]
  viability at 5 µM: 55.7 ± 0.79%
  viability at 10 µM: 58.2 ± 0.8%
  viability at 20 µM: 63.4 ± 1.13%
PC 12 cell lines; Dose 5 μM
  Cell viability: 50.96 ± 1.31
PC 12 cell lines; Dose 10 μM
  Cell viability: 52.89 ± 2.05
PC 12 cell lines; Dose 20 μM
  Cell viability: 54.68 ± 1.78

## COc1cc(/C=C/C(=O)CC(=O)/C=C/c2ccc(O)cc2C)cc(CN(C)C)c1O [Compound 3]
[1]; Dose 5 μM
  The production of NO: 39.26 ± 2.12
[1]; Dose 10 μM
  The production of NO: 30.62 ± 1.71
[1]; Dose 15 μM
  The production of NO: 10.36 ± 3.69
[2]
  viability at 5 µM: 64.7 ± 2.69%
  viability at 10 µM: 71.7 ± 3.77%
  viability at 20 µM: 81.7 ± 2.41%
PC 12 cell lines; Dose 5 μM
  Cell viability: 49.57 ± 2.70
PC 12 cell lines; Dose 10 μM
  Cell viability: 51.85 ± 2.04
PC 12 cell lines; Dose 20 μM
  Cell viability: 57.44 ± 1.80

## COc1cc(/C=C/C(=O)CC(=O)/C=C/c2ccc(O)cc2F)cc(CN(C)C)c1O [Compound 4]
[1]; Dose 5 μM
  The production of NO: 40.64 ± 1.28
[1]; Dose 10 μM
  The production of NO: 29.91 ± 1.78
[1]; Dose 15 μM
  The production of NO: 10.48 ± 0.47
[2]
  viability at 5 µM: 61.7 ± 2.59%
  viability at 10 µM: 71 ± 2.33%
  viability at 20 µM: 84.7 ± 2.76%
PC 12 cell lines; Dose 5 μM
  Cell viability: 49.46 ± 1.97
PC 12 cell lines; Dose 10 μM
  Cell viability: 51.75 ± 0.40
PC 12 cell lines; Dose 20 μM
  Cell viability: 59.56 ± 0.59

## COc1cc(/C=C/C(=O)CC(=O)/C=C/c2ccc(OC)c(OC)c2OC)cc(CN(C)C)c1O [Compound 6]
[1]
  inhibitory activity against NO production compared with curcumin: better inhibitory activity
[1]; Dose 5 μM
  The production of NO: 27.16 ± 2.73
[1]; Dose 10 μM
  The production of NO: 14.67 ± 3.66
[1]; Dose 15 μM
  The production of NO: 5.95 ± 0.13
[2]
  viability at 5 µM: 56.6 ± 1.66%
  viability at 10 µM: 67.8 ± 1.91%
  viability at 20 µM: 94.89 ± 0.58%
PC 12 cell lines
  radiation protection capability compared with curcumin: better radiation protection capability
  radiation protection capacity: a certain degree of radiation protection capacity
PC 12 cell lines; Dose 5 μM
  Cell viability: 58.25 ± 1.05
PC 12 cell lines; Dose 10 μM
  Cell viability: 62.18 ± 1.03
PC 12 cell lines; Dose 20 μM
  Cell viability: 83.08 ± 6.65

## COc1cc(/C=C/C(=O)CC(=O)/C=C/c2ccc(O)c(Cl)c2)cc(CN(C)C)c1O [Compound 7]
[1]; Dose 5 μM
  The production of NO: 35.15 ± 2.72
[1]; Dose 10 μM
  The production of NO: 18.46 ± 2.34
[1]; Dose 15 μM
  The production of NO: 10.47 ± 1.32
[2]
  viability at 5 µM: 54.4 ± 1.18%
  viability at 10 µM: 61.9 ± 1.29%
  viability at 20 µM: 78.2 ± 1.43%
PC 12 cell lines; Dose 5 μM
  Cell viability: 61.54 ± 2.47
PC 12 cell lines; Dose 10 μM
  Cell viability: 63.26 ± 3.00
PC 12 cell lines; Dose 20 μM
  Cell viability: 69.98 ± 4.31

## COc1cc(/C=C/C(=O)CC(=O)/C=C/c2cc(C)c(O)c(C)c2)cc(CN(C)C)c1O [Compound 8]
[1]; Dose 5 μM
  The production of NO: 42.90 ± 0.85
[1]; Dose 10 μM
  The production of NO: 20.21 ± 1.82
[1]; Dose 15 μM
  The production of NO: 5.46 ± 0.34
[2]
  viability at 5 µM: 64.6 ± 1.64%
  viability at 10 µM: 67.8 ± 2.26%
  viability at 20 µM: 81.7 ± 3.21%
PC 12 cell lines
  radiation protection capacity: a certain degree of radiation protection capacity
PC 12 cell lines; Dose 5 μM
  Cell viability: 53.58 ± 0.78
PC 12 cell lines; Dose 10 μM
  Cell viability: 55.23 ± 1.26
PC 12 cell lines; Dose 20 μM
  Cell viability: 78.50 ± 2.59

## COc1cc(O)ccc1/C=C/C(=O)CC(=O)/C=C/c1cc(CN(C)C)c(O)c(OC)c1 [Compound 9]
[1]; Dose 5 μM
  The production of NO: 42.38 ± 2.73
[1]; Dose 10 μM
  The production of NO: 29.76 ± 1.48
[1]; Dose 15 μM
  The production of NO: 19.69 ± 0.78
[1]
  inhibition at 10 µM: 41%
[2]
  viability at 5 µM: 53.22 ± 0.26%
  viability at 10 µM: 58.53 ± 0.46%
  viability at 20 µM: 66.1 ± 1.09%
PC 12 cell lines; Dose 5 μM
  Cell viability: 56.32 ± 1.77
PC 12 cell lines; Dose 10 μM
  Cell viability: 59.94 ± 1.26
PC 12 cell lines; Dose 20 μM
  Cell viability: 65.00 ± 1.84

## COc1cc(/C=C/C(=O)CC(=O)/C=C/c2ccc(O)cc2)cc(CN(C)C)c1O [Compound 10]
[1]
  inhibitory activity against NO production compared with curcumin: better inhibitory activity
  inhibition at 10 µM: 71%
[1]; Dose 5 μM
  The production of NO: 36.66 ± 2.00
[1]; Dose 10 μM
  The production of NO: 15.36 ± 2.09
[1]; Dose 15 μM
  The production of NO: 4.91 ± 0.77
[2]; Dose 5 μM
  Cell viability: 53.53 ± 2.28
[2]; Dose 10 μM
  Cell viability: 58.20 ± 1.24
[2]; Dose 20 μM
  Cell viability: 77.80 ± 2.65
PC 12 cell lines
  viability at 5 µM: 58.4 ± 1.95%
  viability at 10 µM: 63.9 ± 2.22%
  viability at 20 µM: 79.3 ± 3.13%

## COc1cc(/C=C/C(=O)CC(=O)/C=C/c2cc(C)c(O)cc2C)cc(CN(C)C)c1O [Compound 12]
[1]
  inhibitory activity against NO production compared with curcumin: better inhibitory activity
[1]; Dose 5 μM
  The production of NO: 32.06 ± 0.58
[1]; Dose 10 μM
  The production of NO: 15.78 ± 0.50
[1]; Dose 15 μM
  The production of NO: 11.39 ± 1.00
[2]; Dose 5 μM
  Cell viability: 60.69 ± 1.53
[2]; Dose 10 μM
  Cell viability: 70.31 ± 1.65
[2]; Dose 20 μM
  Cell viability: 79.23 ± 1.18
PC 12 cell lines
  radiation protection capacity: a certain degree of radiation protection capacity
  viability at 5 µM: 56.6 ± 1.03%
  viability at 10 µM: 63.1 ± 1.52%
  viability at 20 µM: 76.8 ± 1.27%

## COc1cc(/C=C/C(=O)CC(=O)/C=C/c2c(C)cc(O)cc2C)cc(CN(C)C)c1O [Compound 13]
[1]; Dose 5 μM
  The production of NO: 26.57 ± 1.74
[1]; Dose 10 μM
  The production of NO: 21.53 ± 0.35
[1]; Dose 15 μM
  The production of NO: 10.02 ± 0.61
[2]; Dose 5 μM
  Cell viability: 62.94 ± 0.50
[2]; Dose 10 μM
  Cell viability: 69.55 ± 1.06
[2]; Dose 20 μM
  Cell viability: 80.61 ± 0.83
PC 12 cell lines
  viability at 5 µM: 61.4 ± 1.58%
  viability at 10 µM: 67.8 ± 2.32%
  viability at 20 µM: 87.38 ± 0.6%

## COc1cc(/C=C/C(=O)CC(=O)/C=C/c2c(OC)cc(O)cc2OC)cc(CN(C)C)c1O [Compound 14]
[1]; Dose 5 μM
  The production of NO: 27.84 ± 1.41
[1]; Dose 10 μM
  The production of NO: 22.09 ± 0.55
[1]; Dose 15 μM
  The production of NO: 9.39 ± 0.34
[2]; Dose 5 μM
  Cell viability: 59.32 ± 2.89
[2]; Dose 10 μM
  Cell viability: 65.73 ± 2.40
[2]; Dose 20 μM
  Cell viability: 74.30 ± 1.25
PC 12 cell lines
  viability at 5 µM: 53.08 ± 0.34%
  viability at 10 µM: 54.4 ± 0.72%
  viability at 20 µM: 63.5 ± 1.49%

## COc1cc(/C=C/C(=O)CC(=O)/C=C/c2cc(CN(C)C)c(O)c(OC)c2)ccc1O [Compound 15]
[1]; Dose 5 μM
  The production of NO: 41.85 ± 1.07
[1]; Dose 10 μM
  The production of NO: 28.31 ± 0.33
[1]; Dose 15 μM
  The production of NO: 14.00 ± 0.92
[1]
  inhibition at 10 µM: 44%
[2]; 10 μM, H2O2-stimulated PC 12
  anti-oxidant capacity compared with curcumin: no statistical difference
[2]; Dose 5 μM
  Cell viability: 60.18 ± 1.41
[2]; Dose 10 μM
  Cell viability: 71.98 ± 3.71
[2]; Dose 20 μM
  Cell viability: 87.82 ± 1.77
PC 12 cell lines
  radiation protection capability compared with curcumin: no statistical difference
  viability at 5 µM: 58.6 ± 0.61%
  viability at 10 µM: 63.45 ± 0.21%
  viability at 20 µM: 77 ± 1.23%

Source: publication PMC11085442 (Molecules, 2024)
